Where two headings read alike, the source gives them in different places.
Experiments:
[1] = tested on: GM03665 cells; test: RSL3 Toxicity Assay (RSL3 Assay); format: cell-based, human; conditions: for EC50: Homo sapiens, GM03665 cells, RSL3 2 μM, 24 hours, MTT
Experimental: Example 19: RSL3 Toxicity Assay (RSL3 Assay)
In brief, GM03665 cells (Coriell Institute) were seeded in 96-well plates (Sarstedt) in DMEM cell culture media containing 10% Fetal Bovine serum and 1% Penicillin-Streptomycin (Pen-Strep) antibiotic mix at the amount of 2×10^4/mL (100 μL or 2×10^3 cells per well). Cells were left to rest overnight at 37° C. in a humidified atmosphere with 5% CO2 to allow attachment of the cells to the culture plate. Test compounds were prepared as DMSO stocks (10 mM) and were serially diluted in cell culture media to obtain 2× working solutions. Cell media was discarded and replaced by 50 μL of test compound solutions or cell media with vehicle for control wells. Within 15 minutes, 2× working solution (4 μM) of 1S,3R-RSL3 (CAS #1219810-16-8, Sigma-Aldrich) (diluted from 5 mM DMSO stock in cell culture media) was added. Final reaction volume was 100 μL and final DMSO concentration in reaction was kept below 0.2% (v/v) and equal in all wells. Final RSL3 concentration was 2 μM and test compound final concentrations in reaction were up to 1000 nM. After 24 hours of incubation cell viability was assessed by MTT test. MTT (Sigma-Aldrich) solution 1 mg/mL in 1×PBS (pH=7,4) was prepared 1 hour before the assay and filtered through Filtropur S 0.2 filters (Sarstedt). Cell media with test compounds was discarded and 100 μL of MTT solution was added to cells. The plates were incubated for 2 hours at +37° C. Thereafter, the MTT solution was removed and 100 μL of isopropanol was added to dissolve sediment. Absorption at 570 and 650 nm was measured using Hidex Sense microplate reader.

[2] = tested on: Nrf-2; test: Nrf-2 Activation Assay (Nrf-2 Assay); format: cell-based, human; conditions: Table 7; GM03665 fibroblasts, 1 μM, 24 hours, qPCR of Nrf-2 responsive genes
Experimental: Example 21: Nrf-2 Activation Assay (Nrf-2 Assay)
This assay was developed internally and was designed to determine if the novel test compounds disclosed herein active Nrf-2 and thereby promote resolution of inflammation by the mechanism believed to be responsible for the activity of omaveloxolone.
Briefly, GM03665 Friedreich Ataxia patient fibroblasts were grown in 12 Well Plates (TC Cell+F) (Sarstedt, Nümbrecht Germany), at a density of 12×10^4 cells/per well in DMEM/F12 (Gibco, ThermoFisher Scientific, Waltham, Mass., USA) cell media supplemented with 10% FBS and 1% Pen/Strep. Cells were left to rest overnight at 37° C. in a humidified atmosphere with 5% CO2 to allow attachment of the cells to the culture plate. Before continuing assay visual inspection of each well was done by light microscopy to detect any possible bacterial and fungal contamination. […] After incubation, cell media was removed and total RNA from the cells was isolated using E.Z.N.A.® Total RNA Kit I (Omega Bio-tek, Norcross, Ga., USA) spin columns, and first-strand cDNA synthesis was carried out using a High Capacity cDNA Reverse Transcription Kit (Applied Biosystems™, Foster City, Calif.) following the manufacturer's instructions. qPCR analysis of gene expression was performed by mixing SYBR® Green Master Mix (Applied Biosystems™) with synthesized cDNA and forward and reverse primers. […] (60 cycles), and 95° C. for 60 seconds, followed by melt curve analysis at 72-95° C., 0.3° C./sec. The relative expression levels for each gene were calculated with the ΔΔCt method and normalized to the expression of REEP5 and SNRPD3 genes.

[3] = tested on: HepG2 human hepatocarcinoma cells; test: Rotenone ATP-Assay (Complex I by-pass); format: cell-based; conditions: for EC50: Homo sapiens, 1 h
Experimental: Example 18: Rotenone ATP-Assay
Introduction: • This assay has been adapted from Haefeli R H, Erb M, Gemperli A C, Robay D, Courdier Fruh I, et al. (2011) NQO1-Dependent Redox Cycling of Idebenone: Effects on Cellular Redox Potential and Energy Levels. PLoS ONE 6(3): e17963. HepG2 human hepatocarcinoma cells were co-incubated with the electron transport chain Complex I toxin rotenone +/−compounds of interest and the corresponding effect on ATP synthesis was measured with a bioluminescent substrate.
Assay Experimental: • In brief, HepG2 cells were plated at 25,000 cells per well in low glucose (1 gram/Liter) DMEM medium +10% fetal calf serum and incubated for 24 hours. The following day, the media was decanted and subsequently replaced with glucose free/serum free DMEM which has been supplemented with 50 micromolar rotenone and compound of interest. Serial dilutions of compound were prepared in 3× dilutions beginning at 25 micromolar. The cells were incubated for 60 minutes in a humidified tissue culture incubator. Following incubation, ATP levels were quantified via bioluminescent assay (Promega […]) and readings were captured on a standard microplate reader.
Calculations: • ATP bioluminescence is plotted versus the log of compound of interest and data were used to generate EC50 values. Curve fitting was performed using a sigmoidal dose response curve fit function (GraphPad Prism software).
Robustness of curve fit was assessed as a quality control measure, with an R squared value of at least 0.80 being required for a successful curve fit. Compounds of interest showing an increase in ATP bioluminescence relative to vehicle control were verified in an independent biological replicate of n=3 technical replicates per dose.
Discussion: • This assay is a direct measure of the ability of compounds of interest to restore ATP production under conditions of inhibition of Complex I of the mitochondrial electron transport chain. As the majority of ATP produced via the electron transport chain is thought to derive from Complex I activity, significant impairment in Complex I function has dire biological consequences. Of note, Complex I mutations are thought to drive pathophysiology in multiple mitochondrial diseases, including Leigh syndrome and Leber's Hereditary Optic Neuropathy (LHON), while diminished Complex I activity and the resultant attenuation of ATP production has been shown in neurodegenerative diseases, including Friedreich's Ataxia, Parkinson's Disease and Huntington's Disease.

[4] = tested on: frataxin deficient fibroblasts (GM03665); test: Frataxin Deficient Fibroblast Viability Assay (BSO Assay); conditions: Homo sapiens, 48 h
[5] = biological target: lipoxygenase-15 enzyme (Glycine max (Soybean) (Glycine hispida), UniProt P08170); test: Lipoxygenase-15 Assay (LO-15-Assay); format: biochemical; conditions: reduced (hydroquinone) form
[6] = tested on: intact HepG2 cells; test: Rotenone Oxygraph Assay (High-Resolution Respirometry of Intact HepG2 Cells); format: cell-based, human; conditions: rotenone 1 μM, compound 10 μM; for Percent increase in ATP (Rotenone Oxygraph Assay), Mean: Table 4; for Percent increase in ATP (Rotenone Oxygraph Assay), Mean / Rotenone Oxygraph Assay % Increase: intact HepG2 cells; for Rotenone Oxygraph Assay % Increase: Table 7
Experimental: Example 20: Rotenone Oxygraph Assay (High-Resolution Respirometry of Intact HepG2 Cells)
The Oxygraph-2k (O2k, OROBOROS INSTRUMENTS, Austria) was used for measurements of respiration of intact cells. The respirometry was performed in Dulbecco's Modified Eagle Medium (DMEM) high glucose without supplements. All experiments were performed at 37° C.
HepG2 cells (ATCC collection code HB-8065™) were cultured in 10 cm^2 culture dishes in DMEM high glucose medium supplemented with 10% fetal bovine serum (FBS) and 100 units/mL penicillin and 100 μg/mL streptomycin until approximately 90% confluence was reached. Immediately prior to performing the respirometric assay, the cells were washed with media without FBS, trypsinized and resuspended in DMEM high glucose without FBS.
The final concentration of intact cells in the O2k-chamber was 0.5·10^6/mL. After stabilization of respiration, the Complex I inhibitor, rotenone, at 1 μM final concentration was added to inhibit electron flux via Complex I. Then, compound to be tested was added at 10 μM final concentration, and the change in respiration rate of intact cells was monitored.

[7] = Table 3, mean of at least three measurements, nM printed in Table 7, read-out: RSL3 Assay EC50, Mean
[8] = Table 7, read-out: RSL3 Assay EC50
[9] = HepG2 cells, 50 micromolar rotenone, 60 minutes, ATP bioluminescence, read-out: EC50 Rotenone ATP Assay
[10] = Table 7, HepG2 cells, 50 micromolar rotenone, 60 minutes, read-out: Rotenone ATP Assay EC50

Compound	EC50 [1, 7] [nM]	EC50 [1, 8] [nM]	Nrf-2 Assay [2]	EC50 [3, 9] [nM]	EC50 [3, 10] [nM]	Activity in both the BSO Assay and the Rotenone ATP Assay (in words) ([3]; circumvent BSO induced cell death and restore ATP production when Complex I is inhibited)	EC50 ([4]; read-out: BSO Assay) [nM]	EC50 ([4]; read-out: EC50 (nM) BSO Assay) [nM]	Activity in the LO-15 assay (in words) [5]	Activity in the RSL3 assay (in words) ([1]; protection of Friedreich's ataxia fibroblasts from RSL3)	Percent increase in ATP (Rotenone Oxygraph Assay), Mean [6]	Rotenone Oxygraph Assay % Increase [6]	Rotenone ATP Assay EC50, nM ([3]; Table 7, HepG2 cells, 50 micromolar rotenone, 60 minutes)	Activity in the Rotenone Oxygraph assay, Complex I by-pass (in words) [6]
CC1=C(C)C(=O)C(CC[C@](C)(O)CC/C=C(\C)CC/C=C(\C)CCC=C2COC2)=C(C)C1=O [Compound E, 2-((R,6E,10E)-3-hydroxy-3,7,11-trimethyl-14-(oxetan-3-ylidene)tetradeca-6,10-dien-1-yl)-3,5,6-trimethylcyclohexa-2,5-diene-1,4-dione]	73.2	73.2	Inactive	1000 to 3000	2810	possess both activities	65.1	< 100	outside of the range of the assay	–	–	–	–	–
CC1=C(C)C(=O)C(CC[C@@](C)(O)COCCC[Si](C)(C)C)=C(C)C1=O [Compound M, (R)-2-(3-hydroxy-3-methyl-4-(3-(trimethylsilyl)propoxy)butyl)-3,5,6-trimethylcyclohexa-2,5-diene-1,4-dione]	41.2	41.2	Inactive	1000 to 3000	1340	–	61.2	–	best result	active	56.6 +/− 11.3%	56.6 +/− 11.3%	–	–
CC(C)=CCC/C(C)=C/CC/C(C)=C/CC[C@@](C)(O)CCC1=C(C)C(=O)C(C)=C(C)C1=O [Vatiquinone, reference compound]	56	56	–	> 3000	–	–	44.3	< 100	–	–	Inactive	Inactive	Inactive	inactive

Reference: patent US11584728B2, “Compositions and methods for the prevention and/or treatment of mitochondrial disease, including Friedreich's ataxia” (STEALTH BIOTHERAPEUTICS INC., priority 2019, dated 2023)
